Publication PMC8509705, “Liquid-Liquid Chromatography Separation of Guaiane-Type Sesquiterpene Lactones from Ferula penninervis Regel & Schmalh. and Evaluation of Their In Vitro Cytotoxic and Melanin Inhibitory Potential” (International Journal of Molecular Sciences, 2021)
In brackets after ≈: the same amount, converted by molar mass.

Tests used:
[1] = test system: androgen-dependent prostate cancer LNCaP cells; assay: Neutral red uptake cell viability assay, LNCaP cells; format: cell-based; conditions: Homo sapiens, 48 h; for viability at 50 µg/mL: 50 μg/mL, vs DMSO control; for IC50: neutral red uptake
Method: (§1) Figure 4 Concentration-response curves showing the effect of Ferula penninervis methanolic root extract against gastrointestinal cancer cells (A), prostate cancer cells (B), skin cancer cells (C) and non-cancer cells (D) and the effect of isolated sesquiterpene lactones against prostate cancer LNCaP cells (E) and prostate epithelial PNT2 cells (F). Cells were seeded in 96-well plates (3 × 10^3/well) and treated with increasing concentrations of extract (12.5–200 μg/mL) or sesquiterpene lactones (3.125–50 μg/mL); after 48 h, the cell viability was evaluated using neutral red uptake assay. Data are expressed as percentage change in viability in comparison to the vehicle (DMSO) treated control group. Each point represents the mean ± S.E.M. of three independent experiments performed in triplicates.
Androgen-dependent prostate cancer (derived from lymph node metastasis) LNCaP (ATCC® CRL-1740), androgen-insensitive prostate cancer (derived from brain metastasis) DU145 (ATCC® HTB-81), androgen-insensitive prostate cancer (derived from bone metastasis) PC3 (ATCC® CRL-1435) and prostate epithelial PNT2 (ECACC® 95012613) cell lines were kindly provided by Dr. Vera Knäuper, School of Dentistry, Cardiff University (Cardiff, UK), whereas human colorectal carcinoma Caco-2 (ATCC® HTB-37) cell line was provided by Dr. Konrad Szychowski (University of Information Technology and Management, Rzeszów, Poland). Human gastric cancer (derived from liver metastasis) N87 (ATCC® CRL-5822), human colorectal cancer HT-29 (ATCC® HTB-38), human malignant melanoma A375 (ATCC CRL-1619), human squamous cell cancer SCC-15 (ATCC® CRL-1623) cell lines, murine melanoma B16F10 (ATCC® CRL-6475) and human skin BJ fibroblast (ATCC® CRL-2522) cell lines were purchased from LGC Standards (Łomianki, Poland), whilst immortalized human keratinocyte HaCaT cell lines were bought from Cell Lines Service (CLS) GmbH (Eppelheim, Germany).
LNCaP, PNT2 and N87 cells were grown in RPMI-1640 medium; PC3 cells were cultured in Ham’s F12; DU145, Caco-2 and BJ cells were maintained in EMEM. SCC-15 cell line was grown in DMEM:F12, whilst B16F10, HaCaT and HT-29 cell lines were maintained in DMEM. All conditioned media were supplemented with 10% FBS for all cell lines, except for Caco-2 cells which were grown in EMEM supplemented with 20% FBS. The cells were cultured at 37 °C in a humidified atmosphere with 5% CO2.
(§2) Neutral red uptake (NRU) assay was performed as described by Repetto et al.. Briefly, cells were seeded in 96-well plates (3 × 10^3 cells/well) and grown overnight. The cells were then treated with increasing concentrations of F. penninervis crude extract (12.5–200 µg/mL) and isolated compounds (3.125–50 µg/mL) or the positive control 5-FU (1 µg/mL). The control cells were grown in appropriate culture medium containing equal volume of the used solvent (DMSO). After 48 h, the cells were incubated for 3 h with neutral red solution (33 µg/mL) in conditioned medium containing 1% FBS. […] The absorbance of the released neutral red was measured at λ = 540 nm using FilterMax F5 microplate reader and corrected by the absorbance at λ = 620 nm. The mean measured value for the lysate from control cells was set as 100% cellular viability and used to calculate the percentage of viable cells following extracts treatment.
(§3) All experiments were performed in triplicate and the results were expressed as mean ± standard error of mean (SEM). […]

B16F10 cells [2] = test system: B16F10 cells; parameters: method as in doi:10.1186/s13765-019-0468-7; conditions: 3 and 6 μM; cited from earlier work
B16F10 cells [3] = conditions: cited from earlier work
[4] = test system: αMSH-stimulated murine melanoma B16F10 cells; assay: Melanin release in conditioned medium of αMSH-stimulated B16F10 cells; format: cell-based; conditions: αMSH 10 nM, 72 h; for melanin release in the medium: 10 μg/mL
Method: (§4) Figure 5 Influence of Ferula penninervis root extract and isolated sesquiterpene lactones on melanin release in conditioned medium (A), melanin content in cell lysate (B) and cell viability (C) in α-MSH-stimulated murine melanoma B16F10 cells. B16F10 cells were seeded in 6-well plates (0.5 × 10^5/well) and treated with extract (100 μg/mL) or sesquiterpene lactones (10 μg/mL); melanin production was stimulated with α-MSH (10 nM). Kojic acid (100 μg/mL) was used as positive control. After 72 h, the melanin release/content and cell viability were assessed. Data are expressed as the percentage of melanin release/content in comparison with α-MSH stimulated control cells (α-MSH+) (A,B) or as percentage change in viability in comparison to the vehicle (DMSO) treated control group (C). Each point represents the mean ± S.E.M. of three independent experiments performed in triplicates; # p < 0.001 vs. non-stimulated control cells (αMSH-); ** p < 0.01; *** p < 0.001 vs. αMSH+ cells.
B16F10 cells were plated in 6-well plates (0.5 × 10^5 cells/well) and grown overnight. The cells were treated with F. penninervis crude extract (100 µg/mL), isolated compounds (10 µg/mL) or the positive control kojic acid (100 μg/mL). Melanin production was stimulated with α-MSH (10 nM). Following 72 h, the conditioned medium and cell pellets were collected. Cell pellets were dissolved in 1 N NaOH and incubated for 2 h at 80 °C. Conditioned media and cell lysates were then transferred to a 96-well plate and the absorbance was measured at λ = 405 nm using FilterMax F5 microplate reader. The content of protein in cell lysates was establish using Bradford assay. The melanin released in the conditioned medium and the melanin content in cell lysates (μg melanin/mg protein) were calculated with the help synthetic melanin calibration curves. The melanin release/content was expressed as the percentage of melanin release/content in comparison with α-MSH stimulated control cells without the tested samples.

[5] = test system: erythroleukemia K562 cells; parameters: method as in PMID 24320993; conditions: cited from earlier work
MCF-7 cells = test system: MCF-7 cells; parameters: method as in PMID 24320993; conditions: cited from earlier work
[6] = test system: αMSH-stimulated murine melanoma B16F10 cells; assay: Melanin content in cell lysate of αMSH-stimulated B16F10 cells; format: cell-based; conditions: 100 μg/mL, αMSH 10 nM, 72 h
Method: as §4, with “Each point represents the mean ± S.E.M. of three independent experiments performed in triplicates; # p < 0.001 vs. non-stimulated control cells (αMSH-); ** p < 0.01; *** p < 0.001 vs. αMSH+ cells.” left out
B16F10 cells were plated in 6-well plates (0.5 × 10^5 cells/well) and grown overnight. […] Conditioned media and cell lysates were then transferred to a 96-well plate and the absorbance was measured at λ = 405 nm using FilterMax F5 microplate reader. […] The melanin released in the conditioned medium and the melanin content in cell lysates (μg melanin/mg protein) were calculated with the help synthetic melanin calibration curves. The melanin release/content was expressed as the percentage of melanin release/content in comparison with α-MSH stimulated control cells without the tested samples.

[7] = test system: prostate epithelial PNT2 cells; assay: Neutral red uptake cell viability assay, PNT2 cells; format: cell-based; conditions: 48 h
Method: as §1, with “triplicates. […]” for “triplicates.”
Neutral red uptake (NRU) assay was performed as described by Repetto et al.. […] The absorbance of the released neutral red was measured at λ = 540 nm using FilterMax F5 microplate reader and corrected by the absorbance at λ = 620 nm. The mean measured value for the lysate from control cells was set as 100% cellular viability and used to calculate the percentage of viable cells following extracts treatment.
as §3

[8] = test system: αMSH-stimulated murine melanoma B16F10 cells; assay: Neutral red uptake viability at 72 h in αMSH-stimulated B16F10 cells; format: cell-based; conditions: extract 100 μg/mL, lactones 10 μg/mL, kojic acid 100 μg/mL, vs αMSH- cells
Method: To evaluate the effects of F. penninervis methanolic root extract and its isolated guaiane-type sesquiterpene lactones on the melanin synthesis and release, the melanin assay was carried out. For this purpose, the production of melanin in murine melanoma B16F10 cells was stimulated with αMSH. […] Furthermore, to exclude the possibility that the observed inhibitory effects on the melanin production might have resulted through a reduced number of viable cells, neutral red uptake assay at 72 h was performed (Figure 5C and Figure S17). […] To our knowledge, there are no previous studies reporting the melanin production inhibitory potential of Ferula genus or isolated constituents. Nevertheless, the anti-melanogenic effects of different phytochemicals were repeatedly evidenced in various cell-based assays.
as §4, §2

Question: With O=c1[nH]cc(F)c(=O)[nH]1 [5-FU, 5-Fluorouracil, reference compound] as the compound, how does the viability at 5 µg/mL ([1]; positive control at 5 μg/mL) read?
Answer: 50.6 ± 3.28%

Question: For COc1cc(/C=C/C(=O)N2CCC=CC2=O)cc(OC)c1OC [Piperlongumine], which “effect on cell growth” value (B16F10 cells [2]) is on record?
Answer: no inhibitory effects on the cell growth

Question: And the total melanin production (B16F10 cells [3]; 3 and 6 μM)?
Answer: significantly reduced the total melanin production

Question: Which “melanin release in the medium” value [4] does the source give for CC=C(C)C(=O)OC1CC(C)=C2C(=O)C=C(C)C2C2OC(=O)C(C)(OC(=O)C(C)C)C12 (stereo not drawn) [daucoguaianolactone F, daucoguainolactone F] here?
Answer: inactive

Question: What does the source list for C=C1C(=O)O[C@@H]2[C@H]1CC[C@]1(C)[C@H](OC(=O)/C(C)=C/C)C=CC(=C)[C@@H]21 [dehydrooopodin]?
Answer: IC50 [5]: 5 µM; IC50 (MCF-7 cells): 15 µM

Question: For CC1=CC(=O)C2=C(C)C[C@H](OC(=O)C(C)C)[C@@H]3[C@@H](OC(=O)[C@@]3(C)OC(=O)C(C)C)[C@H]12 [ferupennin Q, 2-oxo-8α,11α-diisobutyroyloxy-5βH,6αH,7αH-gua-1(10),3-diene-6,12-olide], which “melanin release in the medium” value [4] is on record?
Answer: inactive

Question: Which results are given for O=c1cc(CO)occ1O [kojic acid, reference compound]?
Answer: melanin content in the cell lysate [6]: but not the melanin content; melanin release in the conditioned medium ([4]; 100 μg/mL): 35.88 ± 3.45 % of αMSH+ control cells

Question: With C/C=C(/C)C(=O)O[C@H]1CC(C)=C2C(=O)C=C(C)[C@H]2[C@@H]2OC(=O)[C@@](C)(OC(C)=O)[C@@H]21 [laferin] as the compound, how does the cell survival ([7]; 50 µg/mL (highest tested concentration)) read?
Answer: 53.85 ± 1.71%

Question: And the viability at 50 µg/mL [1]?
Answer: 14.4 ± 1.69%

Question: What about the IC50 [1] of the same compound?
Answer: 23.3 µg/mL (≈ 57.8 µM)

Question: And the “viability of B16F10 cells” value [8]?
Answer: without influencing the viability of B16F10 cells

Question: For C=C(C)C(=O)O[C@H]1CC(C)=C2C(=O)C=C(C)[C@H]2[C@@H]2OC(=O)[C@@](C)(OC(=O)C(C)C)[C@@H]21 [oferin], which “viability of B16F10 cells” value [8] is on record?
Answer: without influencing the viability of B16F10 cells

Question: What does the source list for C=C(C)C(=O)O[C@H]1CC(C)=C2C(=O)C=C(C)[C@H]2[C@@H]2OC(=O)[C@@](C)(OC(C)=O)[C@@H]21 [olgin]?
Answer: effect on viability of PNT2 control cells ([7]; 3.125–50 μg/mL): did not significantly affect the viability; viability at 50 µg/mL [1]: 43.1 ± 3.52%; IC50 [1]: 31 µg/mL (≈ 79.9 µM); viability of B16F10 cells [8]: without influencing the viability of B16F10 cells; melanin release in the medium [4]: 40.67–65.48 % of αMSH+ control cells

Question: Which “viability of B16F10 cells” value [8] does the source give for C=C(C)C(=O)O[C@H]1CC(C)=C2C(=O)C=C(C)[C@H]2[C@@H]2OC(=O)[C@@](C)(OC(=O)C(=C)C)[C@@H]21 [olgoferin] here?
Answer: without influencing the viability of B16F10 cells

Question: With C[C@@H]1O[C@@H](O[C@@H]2[C@@H](O)[C@H](O)[C@@H](CO)O[C@H]2c2c(O)cc(O)c3c(=O)cc(-c4ccc(O)cc4)oc23)[C@H](O)[C@H](O)[C@H]1O [vitexin-2ʺ-O-rhamnoside] as the compound, how does the “decrease of intracellular melanin production compared to untreated cells” value (B16F10 cells [3]; 5 μM) read?
Answer: threefold
